The values that follow come from US8673955B2, “Imidazole derivatives as fructose-1,6-bisphosphatase inhibitors and pharmaceutical compositions containing them” (Merck Patent GmbH, priority 2005, dated 2014).

Data set [1] concerns the target T1, human liver recombinant Fructose-1,6-bisphosphatase (Homo sapiens, UniProt P09467).
T1 sequence (P09467 1-338): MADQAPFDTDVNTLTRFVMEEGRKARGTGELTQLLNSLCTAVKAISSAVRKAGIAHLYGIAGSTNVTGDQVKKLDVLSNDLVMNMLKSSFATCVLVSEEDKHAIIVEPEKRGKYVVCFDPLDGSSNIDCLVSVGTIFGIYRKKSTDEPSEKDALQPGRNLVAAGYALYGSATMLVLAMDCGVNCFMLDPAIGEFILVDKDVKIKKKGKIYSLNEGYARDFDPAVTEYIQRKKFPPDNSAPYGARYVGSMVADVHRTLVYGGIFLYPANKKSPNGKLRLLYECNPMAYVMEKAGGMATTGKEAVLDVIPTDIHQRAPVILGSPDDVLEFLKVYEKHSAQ
Description: Inhibition of human liver recombinant fructose-1,6-bisphosphatase, coupled spectrophotometric enzyme assay. Format: biochemical. On the procedure: Enzymatic activity was measured spectrophotometrically in reactions that coupled the formation of product (fructose 6-Phosphate) to the reduction of NADP+, using phosphoglucoisomerase (PGI) and glucose 6-phosphate dehydrogenase (G6PDH) as the coupling enzymes.
Reaction mixtures (250 μl) were made up in 96-well microtitre plates, and consisted of 20 mM triethanolamine, pH 7.5, 2 mM MgCl2, 0.1 mM EDTA, 40 mM ammonium sulfate, 0.5 mM NADP, 1 U/ml G6PDH, 1 U/ml PGI and 0.167 mM substrate (Fructose 1,6-bisphosphate). The inhibitors were prepared at 10^-2 M in DMSO 100% and tested at 10^-5 M (DMSO 0.1%).
Reactions were started by the addition of the human liver recombinant Fructose-1,6-bisphosphatase and were monitored for 30 minutes at 340 nm in a Tecan Plate Reader (Room temperature).

Data set [2] concerns primary culture of rat hepatocytes. Briefly: Hepatic glucose production in primary culture of rat hepatocytes (DHA as gluconeogenic precursor). Format: cell-based. As to conditions: 100 μM compound; 3 h incubation with DHA; control without compound = 100%. Here is the method:
Effects of the compounds previously described on hepatic glucose production in primary culture of rat hepatocytes.
Hepatocytes were isolated from normal Wistar rats in overnight fasted condition by collagenase perfusion as described by Seglen (Methods Cell Biol., (1975); 13, 29-83). Cell viability was assessed by the trypan blue exclusion test. The isolated hepatocytes were suspended in William's medium containing 10% fetal bovine serum in 6 well plates. After cell attachment (4 h) the medium was changed to remove cellular debris and replaced by serum-free minimum essential medium without glucose and the hepatocytes were cultured for 16-18 h (37° C.; 5%, CO2). At the end of the culture and after removing the medium, glucose production was assessed by incubating hepatocytes for 3 h in KREBS buffer supplemented with dihydroxyacetone (DHA) as a gluconeogenic precursor in the presence or not of the different compounds previously described. After the 3 h incubation time, the amount of glucose in the buffer was assayed by a glucose oxidase method (GOD). The total amount of cellular protein per well was measured by the method of Lowry. The results were expressed as nanomoles of glucose produced per mg cell protein. The activity of the tested compounds was expressed as % of control glucose production in presence of DHA and without compound (100%).

The mark [3] stands for this setting: stated in method text, read-out: IC50 for reference inhibitors of Fructose-1,6-bisphosphatase.
[4] abbreviates: 0.167 mM fructose 1,6-bisphosphate, pH 7.5, room temperature, read-out: Inhibition of human F-1,6-Bpase IC50.

Molecules are shown by their SMILES. pIC50: −log10 of the molar value. Like-named read-outs stand apart in the source and are kept apart here.

One may read the pIC50 as −log10 of the IC50, conventionally taken in molar units. For the compound `O=P(O)(O)OC[C@H]1O[C@@](CO)(OP(=O)(O)O)[C@@H](O)[C@@H]1O` [Fructose-2,6-Bisphosphate, reference compound], in data set [1] (setting [3]), the pIC50 was approximately 4.46.

With `Nc1ncnc2c1ncn2[C@@H]1O[C@H](COP(=O)(O)O)[C@@H](O)[C@H]1O` [AMP, reference compound], in data set [1] (setting [3]), the pIC50 is approximately 5.00.

For `O=C(O)c1ccc(Cn2cc(COCc3ccc(Cl)cc3)nc2-c2ccc(Br)cc2)cc1` [Example 47, 4-[2-(4-Bromophenyl)-4-(4-chlorobenzyloxymethyl)imidazol-1-ylmethyl]benzoic acid], the “Hepatic glucose production (rat hepatocytes) % of control at 100 μM” value in data set [2] is on record as 61 % of control. Moreover, the pIC50 in data set [1] (setting [4]) is 4.05.

For the compound `Cc1nc(-c2ccc3ccc(COCc4cn(Cc5ccc(C(=O)O)cc5)c(-c5ccc(Cl)s5)n4)cc3c2)no1` [Example 26, 4-{2-(5-Chlorothiophen-2-yl)-4-[7-(5-methyl-[1,2,4]-oxadiazol-3-yl)naphthalen-2-ylmethoxymethyl]imidazol-1-ylmethyl}benzoic acid], the “Hepatic glucose production (rat hepatocytes) % of control at 100 μM” value in data set [2] is recorded as 44 % of control. Besides, the pIC50 in data set [1] (setting [4]) is 4.29.

For the compound `O=C(O)c1ccc(Cn2cc(COCc3cccc(-c4ccccc4)c3)nc2-c2ccc(Cl)s2)cc1` [Example 20, 4-[4-(Biphenyl-3-ylmethoxymethyl)-2-(5-chlorothiophen-2-yl)imidazol-1-ylmethyl]benzoic acid], in data set [2], the “Hepatic glucose production (rat hepatocytes) % of control at 100 μM” value is listed as 10 % of control. Moreover, the pIC50 in data set [1] (setting [4]) was 4.15.
